# Source: PubChem BioAssay AID1949 (Southern Research Institute, 2009)
# Inconclusive results are not listed. Calls of active or inactive are those of the source. How the calls were made is not given here.
# System: M. tuberculosis H37Rv growth inhibition
# Experiment: Mycobacterium tuberculosis H37Rv growth inhibition, cell based, confirmatory dose response (AID 1949);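 further: bacteria grown 7 days with compound before Alamar blue readout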
row,SMILES,IC50
1,Cc1cc(C(=O)Oc2ccc(Cc3ccccc3)cc2)ccc1[N+](=O)[O-],2.23 µg/mL
2,O=Cc1c(Nc2ccccc2)nc2ccccn2c1=O,6.7 µg/mL
3,O=C(Oc1cccc2cccnc12)c1ccc(S(=O)(=O)N2CCCCC2)cc1,1.48 µg/mL
4,Cc1cc(C)nc(/N=C(/N)Nc2cc(Oc3ccccc3)ccc2Cl)n1,4.87 µg/mL
5,COC(=O)c1ccc(COC(=O)c2ccc(Cl)cc2)cc1,> 50 µg/mL (inactive)
6,O=C(CCCC(=O)N1CCC(Cc2ccccc2)CC1)N1CCC(Cc2ccccc2)CC1,12.1 µg/mL
7,CCc1nccn1S(=O)(=O)c1ccccc1[N+](=O)[O-],> 50 µg/mL (inactive)
8,CC(=O)Oc1ccccc1C(=O)Nc1ccc(Br)cc1Cl,4.23 µg/mL
9,CCc1ccc(Nc2ncnc3ccc(Br)cc23)cc1,4.16 µg/mL
10,Cc1ccc(OCCCCNCCc2ccccc2)c(C)c1,9.13 µg/mL
11,CCOc1ccc(Nc2cc(C)nc3ccc(C(=O)OC)cc23)cc1,3.71 µg/mL
12,CCCN(CCC)C(=S)NC(=O)c1ccc(OC)cc1,2.58 µg/mL
13,CCn1c(NCc2c(O)ccc3ccccc23)nc2ccccc21,2.05 µg/mL
14,COc1ccc2nc(Nc3nc(C)c(C)c(=O)[nH]3)nc(C)c2c1,> 50 µg/mL (inactive)
15,Cc1cc(OC(F)F)ccc1NC(=O)Nc1ccc([N+](=O)[O-])cc1,22.9 µg/mL
16,O=C(NC(=S)N1CCN(C/C=C/c2ccccc2)CC1)c1ccc(Cl)cc1,0.39 µg/mL
17,O=C(Oc1ccc(F)cc1)c1sc2ccccc2c1Cl,3.07 µg/mL
18,c1ccc(CCN(Cc2ccccc2)C2CCN(Cc3c[nH]c4ccccc34)CC2)cc1,2.91 µg/mL
19,Cc1cc2c(cc1C)N(Cc1ccc(C(C)(C)C)cc1)C1=NCCCN12,1.2 µg/mL
20,CC(C)(C)c1ccc(C(=O)NC(=S)Nc2cccc(C#N)c2)cc1,> 50 µg/mL (inactive)
21,CCn1c2ccccc2c2cc(CN3CCC(N4CCN(c5ccccc5)CC4)CC3)ccc21,1.45 µg/mL
22,CCOC(=O)Cc1ccc2c(=O)c(Oc3ccc(F)cc3)coc2c1,33 µg/mL
23,Cc1ccc(OCCN2CCN(c3nc(NCc4ccccc4)c4ccccc4n3)CC2)cc1,1.42 µg/mL

row,SMILES,IC50
1,CN(C)c1ccc(Nc2nc(-c3ccccn3)cs2)cc1,0.74 µg/mL
2,Cc1cc(C)cc(C(=O)Nc2ccc(N3CCN(C(=O)c4cccs4)CC3)c(Cl)c2)c1,15.5 µg/mL
3,O=C(Nc1ncnc2sc3c(c12)CCCC3)c1ccc(F)cc1,0.52 µg/mL
4,C=CCn1c(O)c(C2=c3ccccc3=NC2=O)sc1=N,< 0.1 µg/mL
5,CC(C)(C)c1ccc(OCCNC(=O)c2cccc(Br)c2)cc1,5.19 µg/mL
6,O=C1N(Cc2ccccc2Cl)c2ccc(Cl)cc2C1(O)c1c[nH]c2ccccc12 (stereo not given),3.04 µg/mL
7,CC(=O)c1c(O)n(C)c(=S)n(C)c1=O,> 50 µg/mL (inactive)
8,Cc1ccccc1N1CCN(CC(O)COc2ccc(C(=O)c3ccccc3)cc2)CC1 (stereo not given),2.81 µg/mL
9,N#Cc1cc(-c2nc3ccccc3[nH]2)c(N)n2c1nc1ccccc12,11.5 µg/mL
10,CC(C)(C)c1ccc(C(=O)NC(=S)Nc2ccc(C(=O)O)cc2)cc1,0.64 µg/mL
11,CCCCC(=O)Nc1ccc(C(=O)N2CCN(c3cccc(C(F)(F)F)c3)CC2)cc1,9.86 µg/mL
12,CN(C)c1ccc(C(O)(c2ccc(N(C)C)cc2)c2ccc(N(C)C)cc2)cc1,0.6 µg/mL
13,Cc1ccc(-c2csc(Nc3ccc(S(N)(=O)=O)cc3)n2)cc1,2.52 µg/mL
14,CCc1nc2ccccc2n1CC(O)COc1ccc(Br)cc1 (stereo not given),4.11 µg/mL
15,Cc1ccnc(NC(=O)COc2ccc(C(C)(C)C)cc2Br)c1,5.61 µg/mL
16,O=C(NCCCN1CCN(c2ccc(F)cc2)CC1)NC12CC3CC(CC(C3)C1)C2,> 50 µg/mL (inactive)
17,c1ccc2c(C(c3ccncc3)c3c[nH]c4ccccc34)c[nH]c2c1,12.2 µg/mL
18,CCOC(=O)c1sc(NC(=S)NC2CCN(Cc3ccccc3)CC2)c(C(=O)OCC)c1C,> 50 µg/mL (inactive)
19,CCc1c(C)sc(NC(=S)NC2CCN(Cc3ccccc3)CC2)c1C(=O)OC,1.69 µg/mL
20,CN(C)CCSc1nc(-c2cccs2)cc(-c2ccc(F)cc2)c1C#N,5.23 µg/mL
21,CC(C)Cc1nc2sc3c(c2c(=O)o1)CCCCC3,5.69 µg/mL
22,O=S1(=O)C=C(Sc2nnc(-c3ccccc3)o2)c2ccccc21,0.31 µg/mL
23,Cc1ccc(CSCC(=O)Nc2ccccc2)cc1,2.88 µg/mL

row,SMILES,IC50
1,Fc1ccccc1C1NC(=S)NC2=C1CCc1ccccc12 (stereo not given),9.36 µg/mL
2,O=C(Nc1cccc(I)c1)C(Cl)Cl,5.84 µg/mL
3,CCOC(=O)c1ccc(COC(=O)c2cccc([N+](=O)[O-])c2)cc1,1.11 µg/mL
4,O=C(CSc1ccc(Br)cc1)Nc1ccc([N+](=O)[O-])cc1,23.6 µg/mL
5,CCc1ccc(C2C3=C(CC(C)(C)CC3=O)NC3=C2C(=O)c2ccccc23)cc1 (stereo not given),4.44 µg/mL
6,CCS(=O)(=O)c1nnnn1-c1ccccc1F,> 50 µg/mL (inactive)
7,Cc1cc(C)cc(C(=O)NC(=S)Nc2cc([N+](=O)[O-])ccc2O)c1,0.4 µg/mL
8,CCn1cc(C(=O)O)c(=O)c2cc(F)c(N3CCN(S(=O)(=O)c4ccc(NC(C)=O)cc4)CC3)cc21,36.6 µg/mL
9,COC(=O)CSc1nnc(-c2ccc(C)cc2)o1,0.15 µg/mL
10,O=C(Nc1nc2ccccc2[nH]1)c1cccc(Cl)c1,10.4 µg/mL
11,O=[N+]([O-])c1cccc(NC(=S)Nc2ccc(Cl)c(C(F)(F)F)c2)c1,2.62 µg/mL
12,O=C(Oc1ccc(Cl)c2cccnc12)c1cccs1,0.37 µg/mL
13,CCn1c(Sc2ncnc3ccccc23)nc2ccccc21,2.77 µg/mL
14,O=c1c2cccc3c2c(nn1CCN1CCCCC1)-c1ccccc1-3,2.84 µg/mL
15,Cc1ccc(C(=O)NCCC23CC4CC(CC(C4)C2)C3)cc1,0.18 µg/mL
16,COc1cccc(OC)c1C(=O)Nc1ccc(Cl)c(-c2nc3ccccc3s2)c1,1.49 µg/mL
17,c1ccc(CNCc2cn(-c3ccccc3)nc2-c2ccncc2)cc1,16.5 µg/mL
18,c1ccc(CNc2nc(N3CCN(Cc4ccccc4)CC3)nc3ccccc23)cc1,1.5 µg/mL
19,COC(=O)c1ccc(OC(=O)c2ccc(C)c([N+](=O)[O-])c2)cc1,> 50 µg/mL (inactive)
20,Cc1ccc(NC(=O)C(Cl)Cl)cc1[N+](=O)[O-],2.18 µg/mL
21,O=C1NC(=O)N(c2ccc(Cl)cc2)C(=O)/C1=C\c1ccc([N+](=O)[O-])s1,5.58 µg/mL
22,c1ccc(CCNc2nc3ccccc3[nH]2)cc1,2.94 µg/mL
23,Cc1cc(Nc2ccc(Cl)cc2)nc(NCc2ccccc2)n1,1.34 µg/mL

row,SMILES,IC50
1,O=C(c1ccccc1)c1ccc(OCC(O)Cn2cnc3ccccc32)cc1 (stereo not given),1.51 µg/mL
2,CC1CCN(c2nnnc3c2sc2nc(N4CCOCC4)c4c(c23)CCCC4)CC1,> 50 µg/mL (inactive)
3,O=C(CCNc1ccc(F)cc1)c1ccco1,5.39 µg/mL
4,COc1ccccc1/C=C/c1nn2c(-c3ccc(C)cc3)nnc2s1,45.6 µg/mL
5,CC(C)(C)c1ccc(-c2nc(-c3ccncc3)no2)cc1,> 50 µg/mL (inactive)
6,CCC(Sc1nc2ccccc2o1)C(=O)Nc1nnc(C)s1 (stereo not given),0.75 µg/mL
7,CCOC(=O)COc1c(Cl)cc(/C=C(/C#N)c2nc3ccc(OC)cc3[nH]2)cc1Cl,0.2 µg/mL
8,COc1ccccc1NC(=O)CSc1nc(-c2ccccc2)cc(C(F)(F)F)c1C#N,1.63 µg/mL
9,O=C(Nc1ccc(-c2nc3ccccc3c(=O)o2)cc1)C1CCCCC1,23.9 µg/mL
10,Cc1ccc(NS(=O)(=O)c2ccc(NC(=S)NC(=O)c3ccc(F)cc3)cc2)c(C)c1,8.09 µg/mL
11,Cc1cccc(N2CCN(C(=O)c3ccc(-c4ccccc4)cc3)CC2)c1C,2.34 µg/mL
12,O=C(CNS(=O)(=O)c1cccc(C(F)(F)F)c1)N1CCN(c2ccc(Cl)c(Cl)c2)CC1,4.79 µg/mL
13,Cc1ccc([N+](=O)[O-])cc1S(=O)(=O)Nc1cc(Br)c(O)c2ccccc12,11 µg/mL
14,CCCc1ccc(OCC(=O)Nc2ccc(F)cc2)cc1,0.85 µg/mL
15,CN(C)c1ccc(Nc2nc(-c3ccc(O)cc3O)cs2)cc1,1.54 µg/mL
16,O=C(Nc1ccc(F)c(Cl)c1)c1ccc([N+](=O)[O-])o1,< 0.1 µg/mL
17,COc1cc(NC(=O)c2cc3ccccc3o2)ccc1NC(=O)c1ccccc1Cl,2.31 µg/mL
18,O=C(CCNc1cccc(Br)c1)c1cccs1,5.43 µg/mL
19,CCOC(=O)C(C)Oc1noc2nc(-c3ccccc3)ccc12 (stereo not given),3.92 µg/mL
20,C=CCOc1c(Cl)cc(/C=C/[N+](=O)[O-])cc1OCC,23.4 µg/mL
21,C=C(C)Cn1c(=S)[nH]c2sc3c(c2c1=O)CCc1ccccc1-3,> 50 µg/mL (inactive)
22,Cc1cc(Sc2ncnc(N)c2[N+](=O)[O-])ncn1,1.7 µg/mL
23,CCOc1ccc(OCc2ccc(C(=O)Nc3ccc(Cl)cn3)o2)cc1,19.9 µg/mL

row,SMILES,IC50
1,CCOC(=O)c1c(NC(=O)CN2CCN(CCO)CC2)sc2c1CCC(C)C2 (stereo not given),7.17 µg/mL
2,COc1cccc(-n2nnnc2S(=O)(=O)Cc2ccccc2)c1,0.38 µg/mL
3,CC(=O)N/C(=N/c1nc(C)cc(C)n1)Nc1ccc(C)cc1C,> 50 µg/mL (inactive)
4,COc1ccc(C)cc1NC(=O)c1ccc(Cc2ccc(C)cc2)o1,2.71 µg/mL
5,CCCC(=O)N1CCN(c2ccc(NC(=O)COc3ccc(C(C)CC)cc3)cc2Cl)CC1 (stereo not given),11.3 µg/mL
6,COc1cccc(C(=O)Nc2ccc(Cl)c(C(F)(F)F)c2)c1OC,14.5 µg/mL
7,C=C(C)CN1CCN(c2nc(NCc3ccco3)c3ccccc3n2)CC1,4.56 µg/mL
8,CCOC(=O)C(C)Oc1ccc2c(-c3ccc(OC)cc3)cc(=O)oc2c1 (stereo not given),1.35 µg/mL
9,Cc1ccc2cccc(OCC(=O)c3ccc(C)c(C)c3)c2n1,11.3 µg/mL
10,CCCCN1C(=O)C(=O)c2cc(Br)ccc21,9.17 µg/mL
11,COc1ccc(C2CC(=O)Nc3ccc4ccccc4c32)c(I)c1O (stereo not given),3.48 µg/mL
12,COC(=O)COc1ccc(CSCC(=O)Nc2ccc3ccccc3c2)cc1,0.44 µg/mL
13,Cc1ccc(C(=O)Nc2nc(-c3ccccc3)c(-c3ccccc3)o2)cc1,< 0.1 µg/mL
14,O=C(Oc1cccc2cccnc12)c1ccco1,0.75 µg/mL
15,CC(C)Oc1ccc(NC(=O)CSc2nc3ccccc3s2)cc1,6.12 µg/mL
16,COc1cc(Br)cc2cc(C(=O)Nc3cc(C(F)(F)F)ccc3Cl)c(=O)oc12,> 50 µg/mL (inactive)
17,COC(=O)C(C)Oc1ccc2c(=O)c(-c3ccc(Cl)cc3)coc2c1 (stereo not given),4.23 µg/mL
18,Oc1ccc(/C=C/c2nc(-c3ccccc3O)n(-c3ccccc3)n2)cc1,5.63 µg/mL
19,COc1ccc(OC(C)C(=O)Nc2ccc(Cl)cc2C)cc1 (stereo not given),0.62 µg/mL
20,Cc1c(C(=O)Nc2ccc(Cl)cc2)sc(N)c1C(=O)OC(C)C,7.88 µg/mL
21,C=C1C2(C(=O)Nc3nc4ccc(Br)cc4s3)CCC(C2)C1(C)C (stereo not given),11.4 µg/mL
22,O=C(CC(O)(C(F)(F)F)C(F)(F)F)Nc1ccc(Cl)cc1Cl,5.7 µg/mL
23,CCOC(=O)c1cnc2ccc(OC)cc2c1Nc1ccc2c(c1)OCCO2,2.9 µg/mL
